Patent US10131639B2, “Formulations of 2-(tert-butylamino)-4-((1R,3R,4R)-3-hydroxy-4methylcyclohexylamino)-pyrimidine-5-carboxamide” (Signal Pharmaceuticals, LLC, priority 2014, dated 2018)
Where two headings read alike, the source gives them in different places.

Key:
[1] = Phase 1 study Part 2: single-dose plasma pharmacokinetics, relative bioavailability (tablet vs AIC) and food effect in healthy subjects; format: in vivo, human
Method: Part 2 was an open label, randomized, crossover study with three periods. The study consisted of a screening phase (Days −21 to −2), baseline (Day −1), three treatment/assessment periods, and a follow up phone call.
Twelve eligible subjects reported to the study center on Day −1 of Period 1 for confinement and baseline assessments.
All subjects fasted overnight for at least 10 hours prior to dosing. For Treatment F, subjects received a standard high-fat breakfast 30 minutes before dosing. Dosing occurred 30 minutes (±5 minutes) after serving the meal.
Treatments D and E were administered in the morning following an overnight fast of at least 10 hours. Subjects who received Treatments D and E (fasted) continued to fast for at least 4 hours after dosing. For Treatment F, subjects received a standard high fat (approximately 50% of the total caloric content of the meal), high calorie (approximately 800 to 1000 calories) breakfast 30 minutes before dosing. The meal derived approximately 150, 250, and 500 to 600 calories from protein, carbohydrates, and fat, respectively. Subjects consumed the entire meal within 30 minutes of serving. Dosing occurred 30 minutes (±5 minutes) after serving the meal.
Actual sampling times were used in the calculation of PK parameters.
AUCt: AUC from time zero to the last quantifiable concentration.
AUC∞: AUC from time zero extrapolated to infinity.
Cmax: Maximum observed plasma concentration.
CL/F: Apparent total plasma clearance when dosed orally.
Vz/F: Apparent total volume of distribution when dosed orally.
t1/2: Terminal phase elimination half-life.
Geometric least squares (LS) means, ratio (fed/fasted) and 90% confidence intervals (CIs) of the ratio of geometric LS means were from an analysis of variance (ANOVA) model with treatment, period, and sequence as fixed effects, and subject nested within sequence as a random effect on the natural log-transformed pharmacokinetics.
The median, median difference (fed-fasted), and 90% confidence interval of the median difference were from the Hodges-Lehmann estimate.

[2] = test system: UVB-induced phospho c-jun expression in skin; test: Phospho c-Jun immunohistochemistry of UVB-irradiated skin biopsies: quantitative analysis (integrated optical density); format: in vivo, human
Excerpt: A total of four skin biopsies were taken, one at baseline and one each on the sixth day of each treatment period.
(§1) On baseline (Day −1) and on the sixth day of each dosing period (Days 6, 12, and 18), the skin test sites were delineated on the subject's upper buttock between the beltline and the natal cleft on the right side. The right side of the buttock was divided into four different test sites, one site for 2×MED irradiation at baseline and each of the three dosing periods. Each test site was a minimum of 3 cm×3 cm. Subjects received 2×MED UV irradiation at baseline (Day −1) at approximately the same time that irradiation was scheduled on Days 6, 12, and 18, which was 2 hours postdose. Eight hours after UV irradiation (±10 minutes), a skin punch biopsy was taken from the UV exposure site. The biopsies were processed into tissue slides by a third party and analyzed by immunohistochemistry (IHC). This third party was blinded to the treatment periods (baseline and doses).
(§2) Phospho-c-Jun expression in biopsies was analyzed by IHC. Phospho-c-Jun IHC data were subjectively scored on a scale of 0 to 4 based on the intensity and number of epidermal keratinocyte nuclei stained within the tissue section by trained individuals blinded to treatment. The IHC was also analyzed by automated measurement of integrated optical density.
Phospho c-Jun IHC images were analyzed at Quintiles for integrated optical density of positive nuclear staining using Aperio imaging software (Leica Biosystems). The Phospho c-jun score (Optical Density Scale) reflects the percentage of nuclei with ‘3+’ staining intensity (the cutoff for determining positive staining) as determined by the Aperio nuclear phospho c-jun quantitative image analysis algorithm.

[3] = test system: UVB-induced phospho c-jun expression in skin; test: Phospho c-Jun immunohistochemistry of UVB-irradiated skin biopsies: histopathology scores (scale 0-4); format: in vivo, human
Excerpt: as §1, §2
Phospho c-Jun immunohistochemistry (IHC) images were scored by 2 independent pathologists from Quintiles using a scoring scale of 0-4. The percentage of epithelial c-Jun positive nuclei was scored as follows: […]

[4] = Solubility in water and SGF (24 hours, ambient temperature, HPLC/UV); format: physicochemical; conditions: for solubility at 24 h: ambient temperature
Method: Solubility in Water and SGF: A portion of the sample was weighed into a 2 mL clear HPLC vial. […] The sample was removed from the shaker and pH measurement was performed using a calibrated pH meter. Then a portion of the sample was filtered using […] Nylon-membraned centrifuge tube filter at 14000 RPM for 5 min. The filtrate was analyzed using HPLC/UV with appropriate dilution. The filtered solid residues were analyzed using XRPD.
For solubility in SGF, the samples were prepared and assayed in the same procedures as mentioned above.

[5] = Hygroscopicity by dynamic vapor sorption (DVS); format: physicochemical
Excerpt: DVS: A portion of the sample was loaded into a quartz sample holder and tested using DVS-Advantage system in two continuous adsorption/desorption cycles. The settings are described as follows:
Adsorption/desorption cycle 1: 50 to 95 to 0% RH;
Adsorption/desorption cycle 2: 0 to 95 to 0% RH;

[6] = single oral dose of 200 mg tablet
[7] = measured after 24 hours shaking

Tmax ([1]; human, plasma, po, 200 mg, Treatment E: 1×200 mg formulated tablet, single oral dose, fasted, median (minimum, maximum), N=12, read-out: Tmax): 2 h | AUC(0-t) ([1]; human, plasma, po, 200 mg, Treatment F: 1×200 mg formulated tablet, single oral dose, fed, N=12, read-out: AUCt, Geometric Mean (ANOVA LS mean)): 12000 ng·h/mL | AUC(0-inf) ([1]; human, plasma, po, 200 mg, Treatment F: 1×200 mg formulated tablet, single oral dose, fed, N=12, read-out: AUC∞, Geometric Mean (ANOVA LS mean)): 12300 ng·h/mL | Cmax ([1]; human, plasma, po, 200 mg, Treatment F: 1×200 mg formulated tablet, single oral dose, fed, N=12, read-out: Cmax, Geometric Mean (ANOVA LS mean)): 1840 ng/mL | Tmax ([1]; human, plasma, po, 200 mg, Treatment F: 1×200 mg formulated tablet, single oral dose, fed, N=12, read-out: tmax, Median (Hodges-Lehmann estimate)): 3 h | AUC(0-inf) ([1]; human, plasma, po, 200 mg, Treatment F: 1×200 mg formulated tablet, single oral dose, fed, geometric mean (geometric CV%), N=12, read-out: AUC∞): 12300 ng·h/mL | Cmax ([1]; human, plasma, po, 200 mg, Treatment F: 1×200 mg formulated tablet, single oral dose, fed, geometric mean (geometric CV%), N=12, read-out: Cmax): 1840 ng/mL | Vd/F ([1]; human, plasma, po, 200 mg, Treatment F: 1×200 mg formulated tablet, single oral dose, fed, geometric mean (geometric CV%), N=12, read-out: Vz/F (apparent total volume of distribution)): 510 L | half-life ([1]; human, plasma, po, 200 mg, Treatment F: 1×200 mg formulated tablet, single oral dose, fed, geometric mean (geometric CV%), N=12, read-out: t1/2 (terminal elimination half-life) (converted)): 21.7 h | Tmax ([1]; human, plasma, po, 200 mg, Treatment F: 1×200 mg formulated tablet, single oral dose, fed, median (minimum, maximum), N=12, read-out: Tmax): 3 h | half-life ([1]; human, plasma, po, 200 mg, following a single oral dose of 200 mg, read-out: terminal elimination t1/2 (converted)): ~20 h | correlation of plasma concentrations with whole blood concentration ([1]; single 200 mg dose, Treatment D (FIG. 106)): highly correlated | effect of food on the PK of the tablet formulation ([1]; single oral 200 mg tablet, healthy subjects): no effect | AUCt and AUC∞ under fed compared to fasted conditions [1, 6]: equivalent | Cmax higher in the fed state compared to the fasted state [1, 6]: ~6% | pH of the solubility sample in SGF [4, 7]: (pH 2.20) | pH of the solubility sample in water [4, 7]: (pH 8.96) | solubility at 24 h ([4]; pH 2.2, thermodynamic from solid, simulated gastric fluid without pepsin, read-out: Solubility in SGF (equiv. to free base)): 7170 µg/mL | solubility at 24 h ([4]; pH 8.96, thermodynamic from solid, water, read-out: Solubility in water (equiv. to free base)): 18 µg/mL | Hygroscopicity (80% RH, 25° C., cycle 1 sorption) ([5]; DVS water uptake, L-tartrate: hydrate, difference between 20% RH and 80% RH): 0.17% | hygroscopicity (sorption/desorption, in words) ([5]; DVS, 25° C.): not hygroscopic
SMILES: C[C@@H]1CC[C@@H](Nc2nc(NC(C)(C)C)ncc2C(N)=O)C[C@H]1O [Compound 1, 2-(tert-butylamino)-4-((1R,3R,4R)-3-hydroxy-4-methylcyclohexylamino)-pyrimidine-5-carboxamide]
change from baseline in phospho c-jun staining (integrated optical density) ([2]; 60 mg QD×6 days, biopsy 8 hours after 2×MED UVB): not decreased | percentage of subjects with a decrease in optical density score compared to baseline ([2]; 60 mg dose (4/14)): 29% | decrease from baseline in phospho c-jun staining (integrated optical density) ([2]; 160 mg QD×6 days, biopsy 8 hours after 2×MED UVB, p=0.18): 7.5% | percentage of subjects with a decrease in optical density score compared to baseline ([2]; 160 mg dose (11/13)): 85% | decrease from baseline in phospho c-jun staining (integrated optical density) ([2]; 400 mg QD×6 days, biopsy 8 hours after 2×MED UVB, p<0.0001): 29.5% | percentage of subjects with a decrease in optical density score compared to baseline ([2]; 400 mg dose (13/13)): 100% | inhibition of UVB-induced phospho c-jun expression in skin ([2]; 60, 160, 400 mg QD×6 days, automated quantitative image analysis): dose-dependent manner | percentage of individuals showing either no change or a decrease in histopathology score ([3]; 60 mg dose group (8/15)): 53% | percentage of individuals showing either no change or a decrease in histopathology score ([3]; 160 mg dose group (10/14)): 71% | percentage of individuals showing either no change or a decrease in histopathology score ([3]; 400 mg dose group (11/14)): 79% | change from baseline in median histopathology scores ([3]; 60, 160, 400 mg QD×6 days, scale 0-4, 2 independent pathologists): not significantly affected
